One test addresses TGF-beta receptor type-1 (Homo sapiens, UniProt P36897, T204D). Description: The reaction is incubated for 1 hour at room temperature and the HTRF signal was measured on an Envision plate reader (Ex: 340 nm; Em: 520 nm/495 nm). Inhibition data were calculated by comparison to no enzyme control reactions for 100% inhibition and vehicle-only reactions for 0% inhibition. The final concentration of reagents in the assay are 1 nM HIS-TGFβR1 T204D or HIS-TGFβR2 WT, 0.2 nM anti-HIS detection antibody, labeled small molecule probe (at Kd) and 0.5% DMSO. Dose response curves were generated to determine the concentration required inhibiting 50% of kinase activity (IC50). Compounds were dissolved at 10 mM in dimethylsulfoxide (DMSO) and evaluated at eleven concentrations.

A further test has as its target TGF-beta receptor type-2 (Homo sapiens, UniProt P37173). Nature of the test: Compounds were dissolved at 10 mM in dimethylsulfoxide (DMSO) and evaluated at eleven concentrations.

TGF-beta receptor type-1, sequence (P36897 34-503 T204D limits assumed): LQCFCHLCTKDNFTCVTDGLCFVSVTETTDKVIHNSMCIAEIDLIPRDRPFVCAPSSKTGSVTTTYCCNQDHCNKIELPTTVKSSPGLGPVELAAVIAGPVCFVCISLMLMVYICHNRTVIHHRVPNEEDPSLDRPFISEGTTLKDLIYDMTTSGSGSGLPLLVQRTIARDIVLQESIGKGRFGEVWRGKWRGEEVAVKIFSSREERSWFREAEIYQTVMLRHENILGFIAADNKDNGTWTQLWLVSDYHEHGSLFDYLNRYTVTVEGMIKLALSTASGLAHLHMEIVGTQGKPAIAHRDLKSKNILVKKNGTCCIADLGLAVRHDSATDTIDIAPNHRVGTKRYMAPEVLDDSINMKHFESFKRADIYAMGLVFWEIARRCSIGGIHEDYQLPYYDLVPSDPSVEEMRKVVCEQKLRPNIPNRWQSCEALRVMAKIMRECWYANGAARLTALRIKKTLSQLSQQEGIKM
TGF-beta receptor type-2, sequence (P37173 whole entry): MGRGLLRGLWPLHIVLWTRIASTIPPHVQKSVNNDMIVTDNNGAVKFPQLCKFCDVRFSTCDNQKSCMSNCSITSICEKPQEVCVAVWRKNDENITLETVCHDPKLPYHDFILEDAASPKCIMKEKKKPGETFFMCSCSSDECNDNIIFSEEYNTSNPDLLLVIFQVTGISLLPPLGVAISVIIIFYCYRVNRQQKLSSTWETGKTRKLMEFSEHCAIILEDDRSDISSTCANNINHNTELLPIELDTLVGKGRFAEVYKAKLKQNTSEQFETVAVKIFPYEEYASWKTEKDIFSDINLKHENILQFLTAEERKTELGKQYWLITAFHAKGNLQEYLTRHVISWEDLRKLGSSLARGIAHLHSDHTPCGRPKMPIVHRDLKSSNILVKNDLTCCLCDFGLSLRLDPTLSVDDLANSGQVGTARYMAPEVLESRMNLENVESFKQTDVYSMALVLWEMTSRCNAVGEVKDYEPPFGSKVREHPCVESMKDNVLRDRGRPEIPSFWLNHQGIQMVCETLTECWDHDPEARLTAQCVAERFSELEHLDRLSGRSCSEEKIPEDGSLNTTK

As usually defined, the IC50 is the point on the concentration scale where inhibition reaches its midpoint. Consider `Cc1cccc(-c2ncccc2-c2ccc3ncc(C(=O)O)n3c2)n1`, for which, on TGF-beta receptor type-1, the IC50 is 4 nM. Take `CNC(=O)c1cnc2ccc(-c3cccnc3-c3cccc(C)n3)cn12`: the IC50 on TGF-beta receptor type-1 was 2 nM; against TGF-beta receptor type-2, over 15 µM. `N#Cc1cnc2ccc(-c3cccnc3-c3cccc(C(F)(F)F)n3)cn12`: the IC50 at TGF-beta receptor type-1 is 11 nM; against TGF-beta receptor type-2 it was over 15 µM.

On to `Cc1cccc(-c2ncccc2-c2ccn3ncc(C(N)=O)c3n2)n1`, for which the IC50 is 6 nM on TGF-beta receptor type-1 and over 15 µM against TGF-beta receptor type-2.

These data come from ChEMBL document CHEMBL5727076, “GDF-8 inhibitors” (2018).
